From patent US6043228A, “O^6 -substituted guanine derivatives, a process for their preparation and their use in treating tumor cells” (Cancer Research Campaign Technology Limited, priority 1993, dated 2000)
Entries after “also recorded” stand apart in the source; their conditions may differ. Read-outs that look alike come from different tables or passages of the source.

Assays:
[1] = biological target: T1, ATase in Raji cells (Homo sapiens, UniProt P16455); assay: Inactivation of ATase activity in mammalian cells: Raji; assay type: cell-based
T1 construct: endogenous in cells; host or cells: Raji
T1 sequence (P16455 1-207): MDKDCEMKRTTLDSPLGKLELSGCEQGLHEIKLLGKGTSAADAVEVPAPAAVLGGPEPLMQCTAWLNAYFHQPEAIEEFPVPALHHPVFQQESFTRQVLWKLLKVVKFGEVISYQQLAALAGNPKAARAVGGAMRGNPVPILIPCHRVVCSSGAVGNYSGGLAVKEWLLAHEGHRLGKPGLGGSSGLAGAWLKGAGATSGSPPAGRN
Method: Mammalian cells were cultured under standard conditions. For example, Raji (a human lymphoblastoid cell line from a Burkitt's lymphoma) cells were grown in suspension culture in RPMI medium supplemented with 10% horse serum. A375M cells are human melanoma cells from which the xenografts described below were established following subcutaneous injection into nude mice: WiDr cells are a human colon carcinoma cell line: Hamster+120 cells are a mitozolomide-selected subline of a Chinese hamster lung fibroblast V79 cell line called RJKO: Yoshida cells are a rat carcinosarcoma cell line and YRbus is a busulphan resistant subline thereof: XP cells are an SV40-transformed fibroblast cell line originally from the skin of a Xeroderma piamentosum patient, pHMGhAT2b cells are a clone of these cells that have been transfected with a mammalian cell expression vector containing the human ATase cDNA and pHMGla cells are a clone that have been transfected with the expression vector only (i.e. one not containing the human ATase cDNA). Cell pellets were resuspended in cold (4° C.) buffer I containing 2 μg/ml leupeptin and sonicated for 10 seconds at 12μ peak to peak distance. After cooling in ice, the cells were sonicated for a further 10 seconds at 18μ. […]

[2] = tested on: Raji cells; assay: Sensitization of Raji cells to BCNU (XTT assay); assay type: cell-based, human
Method: Following a 2 hour incubation at 37° C., medium containing either increasing doses of BCNU, temozolomide or equivalent vehicle was added and the cells allowed to grow for 6 days. At this time XTT solution was added and the cells incubated for a further 4 hours at 37° C. The resulting red/orange formazan reaction product was quantified by measuring absorption at 450 nm on a microtitre platereader.

[3] = tested on: ATase; assay: Inactivation of ATase in mammalian cells, summary over human, rat and Chinese hamster cell lines; assay type: cell-based; conditions: Table 5
Method: Mammalian cells were cultured under standard conditions. For example, Raji (a human lymphoblastoid cell line from a Burkitt's lymphoma) cells were grown in suspension culture in RPMI medium supplemented with 10% horse serum. […]
Cells were diluted to 10^6 /ml in culture medium containing either the appropriate concentration of inactivator or an equivalent volume of vehicle (DMSO). […] ATase activity was determined as described above, in duplicate sonicated cell extracts and expressed as the, percentage activity remaining based on that present in the untreated controls (for example 350-450 fm/mg in Raji cells).

[4] = tested on: nude mice; assay: Xenograft study: survival of nude mice given inactivator plus BCNU; conditions: FIGS. 9-13
Excerpt: BALB-C derived athymic male mice (nu/nu athymic) weighing between 25-35 g were obtained from the in-house breeding colony of the Paterson Institute for Cancer Research, Christie Hospital NHS Trust, Wilmslow Road, Manchester M20 9BX, England (ASU mice). The animals were housed in a sterile environment until required for experiments. In one experiment mice were obtained from Harlan-Olac, Harlan UK Limited, Shaw's Farm, Blackthorn, Bicester, Oxon. OX6 OPT, England (OLAC mice).

[5] = tested on: DBA2 mice; assay: Toxicity of inactivators in combination with BCNU in DBA2 mice; assay type: in vivo, mouse; conditions: Table 11
Excerpt: All agents were given as a single i.p. dose

| Structure (SMILES) | IC50 ([1]; Table 4, Raji cells, 2 hours at 37° C., read-out: Raji I50) [nM] | IC50 ([1]; Table 5, Human Raji, read-out: Inactivation of ATase in Mammalian Cells I50) [nM] | sensitizing Raji cells to growth inhibitory effects of BCNU, in words ([2]; 0.1 μM inactivator (FIG. 2)) | sensitizing Raji cells to growth inhibitory effects of BCNU, in words ([2]; 1.0 μM inactivator (FIG. 2)) | effectiveness relative to BeG in the cell lines used [3] | toxicity in combination with BCNU in nude mice, in words [4] | acute toxicity in combination with BCNU in DBA2 mice, in words [5] |
| --- | --- | --- | --- | --- | --- | --- | --- |
| Nc1nc(OCc2cccs2)c2nc[nH]c2n1 [B.4205, 0^6 -thenylguanine] | 20 | 20 | more effective than BeG | equally effective | up to 7 times | substantially less toxic in combination with BCNU than BeG in combination with BCNU; also recorded: very little effect |  |
| Nc1nc(OCc2cc(Br)cs2)c2nc[nH]c2n1 [B.4280, O^6-(4-bromothenyl)guanine] |  |  |  |  |  |  | considerably less acutely toxic than B.4205 or BeG |
